# Results: patent publication US20250129103A1, “METHODS FOR TREATMENT OF CANCER” (Frontier Medicines Corporation, priority 2022, published 2025)
# Columns and labels:
# [1] = biological target: KRAS G12C (GMPPNP-loaded) and PI3Ka (Ras-binding domain) interaction (Homo sapiens (Human), UniProt P01116, C118S/C51S/C80L/G12C); test: Inhibition of KRAS G12C and PI3Ka binding (AlphaScreen); settings: KRAS G12C loaded with GMPPNP, PI3Ka RBD, 2 hours preincubation; read-out: PI3K RBD K-Ras IC50
# Description: The AlphaScreen technology was used to determine IC50S for compound inhibition of KRAS G12C (present as the Cys-light (C51S, C80L and C118S), truncated version comprising amino acids 1-169) and PI3Ka interaction. Compounds were diluted in 100% DMSO and each compound concentration was spotted at 200 nl/well onto low volume, white 384 well plates. The KRAS G12C contained a biotin-AviTag and the PI3Ka, as Ras-binding domain (amino acids 157-300, RBD), was His-tagged. KRAS G12C was preloaded with the GTP analogue Guanosine 5′-[β,γ-imido]triphosphate (GMPPNP). The KRAS G12C was diluted in 25 mM Hepes, pH 7.4, 150 mM NaCl, 5 mM MgCl2, 0.01% TritonX-100 and 10 μM GMPPNP and added at 10 ul/well to compound-spotted plates resulting in a DMSO concentration of 2%. Plates were incubated for 2 hours. A mixture of RBD and the AlphaScreen streptavidin donor and nickel chelate acceptor beads diluted in 25 mM Hepes, pH 7.4, 150 mM NaCl, 5 mM MgCl2, 0.01% TritonX-100 and 2% DMSO was then added at 10 ul/well and incubated for 60-90 minutes before the samples were read for emission at 570 nm after excitation of the donor beads at 680 nm. All incubations were performed at room temperature. The final top compound concentration was 50 μM with 1:3 titrations for 10-point dose response curves. Final assay conditions were 1.5 nM KRAS G12C, 100 nM RBD, 1.25 ug/ml of AlphaScreen donor beads and 10 μg/ml AlphaLISA acceptor beads. IC50s were determined using nonlinear regression fit of [inhibitor] vs. response (4 parameters). […]
# [2] = biological target: KRAS G12C (GMPPNP-loaded) and cRAF (Ras-binding domain) interaction (Homo sapiens (Human), UniProt P01116, C118S/C51S/C80L/G12C); test: Inhibition of KRAS G12C and cRAF binding (AlphaScreen); settings: KRAS G12C loaded with GMPPNP, cRaf RBD, 2 hours preincubation; read-out: Raf-1 RBD K-Ras IC50
# KRAS G12C (GMPPNP-loaded) and cRAF (Ras-binding domain) interaction, sequence (P01116 other isoform, or with tags, fused parts or gaps G12C/C51S/C80L/C118S): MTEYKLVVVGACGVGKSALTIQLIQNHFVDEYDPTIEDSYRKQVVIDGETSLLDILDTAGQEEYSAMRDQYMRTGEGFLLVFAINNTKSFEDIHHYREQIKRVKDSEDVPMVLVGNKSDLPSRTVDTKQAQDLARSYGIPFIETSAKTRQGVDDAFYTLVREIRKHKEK
# Procedure, shortened: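 GMPPNP-loaded KRAS G12C in 25 mM Hepes pH 7.4, 150 mM NaCl, 5 mM MgCl2, 0.01% Triton X-100, 10 μM GMPPNP, 2% DMSO, preincubated with compound 2 h at room temperature. cRAF RBD plus AlphaScreen beads then added for 60-90 min; signal read at 570 nm.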
# [3] = Determination of kinetic solubility (pH 7.4); assay type: physicochemical; settings: phosphate buffer, pH 7.4, aqueous buffer, kinetic from dmso stock, 50 mM phosphate buffer pH 7.4, read-out: Ksol, pH 7.4
# Procedure, shortened: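 Sample mixed with 50 mM phosphate buffer, pH 7.4, vortexed, then shaken 2 h at room temperature and centrifuged. Filtrate analysed by HPLC-UV and LC-MS/MS, with solubility read from peak areas against a standard calibration curve.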
# [4] = Determination of logD (1-octanol / phosphate buffer pH 7.4); assay type: physicochemical; settings: 1-octanol/phosphate buffer, pH 7.4, pH 7.4, 1-octanol/phosphate buffer; read-out: Log D, pH 7.4
# Procedure, shortened: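 Shake-flask partition between 1-octanol and 100 mM phosphate buffer pH 7.4, each phase presaturated with the other overnight. Tubes shaken 1 h at 800 rpm, room temperature, then centrifuged. Both phases quantified by LCMS and logD calculated from the ratio.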
# KRAS G12C (GMPPNP-loaded) and PI3Ka (Ras-binding domain) interaction, sequence (P01116 other isoform, or with tags, fused parts or gaps G12C/C51S/C80L/C118S): as above
structure (smiles),measurement,setting,value
N#CC[C@H]1CN(c2nc(OC[C@@]34CCCN3C[C@H](F)C4)nc3c(F)c(-c4cccc(Cl)c4C4CC4)ncc23)CCN1C(=O)/C=C/CN1CCOCC1 [Compound 243],IC50,[1],< 10 nM
same,IC50,[2],< 10 nM
N#CC[C@H]1CN(c2nc(OCC34CCCN3CCC4)nc3c2CCN(c2cccc4cccc(Cl)c24)C3)CCN1C(=O)/C=C/CN1CCC(F)(F)CC1 [Compound 159],IC50,[1],< 10 nM
same,IC50,[2],< 10 nM
Cc1nccc(/C=C/C(=O)N2CCN(c3nc(OC[C@@]45CCCN4C[C@H](F)C5)nc4c(F)c(-c5cccc6ccc(F)c(F)c56)ncc34)C[C@@H]2CC#N)n1 [Compound 211],IC50,[1],< 10 nM
same,IC50,[2],< 10 nM
"Cc1noc(/C=C/C(=O)N2CCN(c3nc(OC[C@@]45CCCN4C[C@H](F)C5)nc4c3CCN(c3cccc5ccc(F)c(Cl)c35)C4)C[C@@H]2CC#N)n1 [Example 3, 2-((S)-4-(7-(8-chloro-7-fluoronaphthalen-1-yl)-2-(((2R,7aS)-2-fluorotetrahydro-1H-pyrrolizin-7a(5H)-yl)methoxy)-5,6,7,8-tetrahydropyrido[3,4-d]pyrimidin-4-yl)-1-((E)-3-(3-methyl-1,2,4-oxadiazol-5-yl)acryloyl)piperazin-2-yl)acetonitrile]",IC50,[1],< 10 nM
same,IC50,[2],10 to 100 nM
"Cc1cc(/C=C/C(=O)N2CCN(c3nc(OC[C@@]45CCCN4C[C@H](F)C5)nc4c(F)c(-c5cccc6cccc(Cl)c56)ncc34)C[C@@H]2CC#N)nc(C)n1 [Example 69, 2-((S)-4-(7-(8-chloronaphthalen-1-yl)-8-fluoro-2-(((2R,7aS)-2-fluorotetrahydro-1H-pyrrolizin-7a(5H)-yl)methoxy)pyrido[4,3-d]pyrimidin-4-yl)-1-((E)-3-(2,6-dimethylpyrimidin-4-yl)acryloyl)piperazin-2-yl)acetonitrile]",IC50,[1],< 10 nM
same,IC50,[2],< 10 nM
CCc1nccc(/C=C/C(=O)N2CCN(c3nc(OC[C@@]45CCCN4C[C@H](F)C5)nc4c(F)c(-c5cccc6cccc(Cl)c56)ncc34)C[C@@H]2CC#N)n1 [Compound 150],IC50,[1],< 10 nM
same,IC50,[2],< 10 nM
"Cc1cc(N)nc(C2Cc3nc(OC[C@@]45CCCN4C[C@H](F)C5)nc(N4CCN(C(=O)/C=C/c5nc(C(C)C)no5)[C@@H](CC#N)C4)c3CC2C)c1C(F)(F)F (mixture of isomers) [Example 66, 2-((2S)-4-(7-(6-amino-4-methyl-3-(trifluoromethyl)pyridin-2-yl)-2-(((2R,7aS)-2-fluorotetrahydro-1H-pyrrolizin-7a(5H)-yl)methoxy)-6-methyl-5,6,7,8-tetrahydroquinazolin-4-yl)-1-((E)-3-(3-isopropyl-1,2,4-oxadiazol-5-yl)acryloyl)piperazin-2-yl)acetonitrile]",IC50,[1],10 to 100 nM
same,IC50,[2],10 to 100 nM
N#CC[C@H]1CN(c2nc(OC[C@@]34CCCN3C[C@H](F)C4)nc3c(F)c(-c4cccc5cccc(F)c45)ncc23)CCN1C(=O)/C=C/CN1C[C@@H]2C[C@H]1CO2 [Compound 219],IC50,[1],< 10 nM
same,IC50,[2],< 10 nM
N#CC[C@H]1CN(c2nc(OC[C@@]34CCCN3C[C@H](F)C4)nc3c(F)c(-c4cccc(Cl)c4C4CC4)ncc23)CCN1C(=O)/C=C/CN1CC[C@H](F)C1 [Compound 283],IC50,[1],< 10 nM
same,IC50,[2],< 10 nM
CN1CCC1/C=C/C(=O)N1CCN(c2nc(OC[C@@]34CCCN3C[C@H](F)C4)nc3c(F)c(-c4cccc5cccc(Cl)c45)ncc23)C[C@@H]1CC#N (some centres unmarked) [Compound 51],IC50,[1],10 to 100 nM
same,IC50,[2],10 to 100 nM
"Cc1cc(/C=C/C(=O)N2CCN(c3nc(OC[C@@]45CCCN4C[C@H](F)C5)nc4c(F)c(-c5cccc6ccc(F)c(C)c56)ncc34)C[C@@H]2CC#N)nc(C)n1 [Compound 105, 2-((S)-1-((E)-3-(2,6-dimethylpyrimidin-4-yl)acryloyl)-4-(8-fluoro-7-(7-fluoro-8-methylnaphthalen-1-yl)-2-(((2R,7aS)-2-fluorotetrahydro-1H-pyrrolizin-7a(5H)-yl)methoxy)pyrido[4,3-d]pyrimidin-4-yl)piperazin-2-yl)acetonitrile]",IC50,[2],< 10 nM
same,solubility kinetic at 2 h,[3],2.36 µg/mL
same,logD,[4],3.99
Cc1cc(N)nc([C@H]2Cc3nc(OC[C@@]45CCCN4C[C@H](F)C5)nc(N4CCN(C(=O)/C=C/CN(C)C)[C@@H](CC#N)C4)c3C[C@@H]2C)c1C(F)(F)F [Compound 323],IC50,[2],100 to 500 nM
same,solubility kinetic at 2 h,[3],74.5 µg/mL
same,logD,[4],2.71
N#CC[C@H]1CN(c2nc(OC[C@@]34CCCN3C[C@H](F)C4)nc3c(F)c(-c4cccc5ccc(F)c(F)c45)ncc23)CCN1C(=O)/C=C/CN1CC2CCC(C1)O2 [Compound 249],IC50,[2],< 10 nM
same,solubility kinetic at 2 h,[3],71.1 µg/mL
same,logD,[4],3.38
C[C@@H]1CN(C/C=C/C(=O)N2CCN(c3nc(OC[C@@]45CCCN4C[C@H](F)C5)nc4c(F)c(-c5cccc6ccc(F)c(F)c56)ncc34)C[C@@H]2CC#N)C[C@H](C)O1 [Compound 239],IC50,[2],10 to 100 nM
same,solubility kinetic at 2 h,[3],92.6 µg/mL
same,logD,[4],2.53
N#CC[C@H]1CN(c2nc(OC[C@@]34CCCN3C[C@H](F)C4)nc3c(F)c(-c4cccc5cccc(F)c45)ncc23)CCN1C(=O)/C=C/CN1CCOCC1 [Compound 233],IC50,[2],10 to 100 nM
same,solubility kinetic at 2 h,[3],102 µg/mL
same,logD,[4],2.91
"N#CC[C@H]1CN(c2nc(OC[C@@]34CCCN3C[C@H](F)C4)nc3c(F)c(-c4cccc5cccc(Cl)c45)ncc23)CCN1C(=O)/C=C/c1nc([C@H]2C[C@@H]2F)no1 [Compound 15, 2-((S)-4-(7-(8-chloronaphthalen-1-yl)-8-fluoro-2-(((2R,7aS)-2-fluorotetrahydro-1H-pyrrolizin-7a(5H)-yl)methoxy)pyrido[4,3-d]pyrimidin-4-yl)-1-((E)-3-(3-((1R,2S)-2-fluorocyclopropyl)-1,2,4-oxadiazol-5-yl)acryloyl)piperazin-2-yl)acetonitrile]",IC50,[2],100 to 500 nM
same,solubility kinetic at 2 h,[3],0.01 µg/mL
same,logD,[4],4.24
N#CC[C@H]1CN(c2nc(OCC34CCCN3CCC4)nc3c2CCN(c2cccc4cccc(Cl)c24)C3)CCN1C(=O)/C=C/CN1CC2C(C1)C2(F)F (some centres unmarked) [Compound 193],IC50,[2],< 10 nM
same,solubility kinetic at 2 h,[3],97.3 µg/mL
same,logD,[4],3.13
N#CC[C@H]1CN(c2nc(OC[C@@]34CCCN3C[C@H](F)C4)nc3c(F)c(-c4cccc5ccc(F)c(Cl)c45)ncc23)CCN1C(=O)/C=C/CN1CCOC2CC21 (some centres unmarked) [Compound 160],IC50,[2],< 10 nM
same,solubility kinetic at 2 h,[3],86.8 µg/mL
same,logD,[4],3.33
"N#CC[C@H]1CN(c2nc(OC[C@@]34CCCN3C[C@H](F)C4)nc3c(F)c(-c4cccc5cccc(Cl)c45)ncc23)CCN1C(=O)/C=C/CN1CC2CCC1CO2 (stereo partly drawn) [Compound 108, 2-((2S)-1-((E)-4-(2-oxa-5-azabicyclo[2.2.2]octan-5-yl)but-2-enoyl)-4-(7-(8-chloronaphthalen-1-yl)-8-fluoro-2-(((2R,7aS)-2-fluorohexahydro-1H-pyrrolizin-7a-yl)methoxy)pyrido[4,3-d]pyrimidin-4-yl)piperazin-2-yl)acetonitrile]",IC50,[2],< 10 nM
same,solubility kinetic at 2 h,[3],88 µg/mL
same,logD,[4],3
N#CC[C@H]1CN(c2nc(OCC34CCCN3CCC4)nc3c2CCN(c2cccc4cccc(Cl)c24)C3)CCN1C(=O)/C=C/CN1C[C@H]2COC[C@H]2C1 [Compound 195],IC50,[2],10 to 100 nM
same,solubility kinetic at 2 h,[3],149 µg/mL
same,logD,[4],2.44
Cc1nnc(/C=C/C(=O)N2CCN(c3nc(OCC45CCCN4CCC5)nc4c3CCN(c3cccc5cccc(Cl)c35)C4)C[C@@H]2CC#N)[nH]1 [Compound 29],IC50,[2],> 500 nM
same,solubility kinetic at 2 h,[3],74.7 µg/mL
same,logD,[4],2.84
Cc1c(F)ccc2cccc(-c3ncc4c(N5CCN(C(=O)/C=C/CN6CC7CC(C6)O7)[C@@H](CC#N)C5)nc(OC[C@@]56CCCN5C[C@H](F)C6)nc4c3F)c12 [Compound 247],IC50,[2],< 10 nM
same,solubility kinetic at 2 h,[3],88.6 µg/mL
same,logD,[4],3.02
Cn1cnc(/C=C/C(=O)N2CCN(c3nc(OCC45CCCN4CCC5)nc4c3CCN(c3cccc5cccc(Cl)c35)C4)C[C@@H]2CC#N)n1 [Compound 21],IC50,[2],> 500 nM
same,solubility kinetic at 2 h,[3],89.8 µg/mL
same,logD,[4],2.48
